Results on seven molecules are retold here after patent publication US9434716B2, “Antigen binding proteins” (Glaxo Group Limited, priority 2011, dated 2016).

Changes are numbered by the printed parent chain.

Assay [1] deals with T1, human SAP (Homo sapiens, UniProt P02743).
T1 construct: from tissue; host or cells: natural human SAP, purified
The assay is described as follows: Biacore kinetics, human SAP captured on immobilised O-phosphoethanolamine. It is filed as binding. As to conditions: amino acid scan at position 91 of SAP-K L0 light chain. Here is the method:
O-phosphoethanolamine was immobilised on a Biacore CM5 chip by primary amine coupling in accordance with the manufacturer's instructions. Human SAP was then captured on the surface in the presence of calcium chloride, in order to replicate in the Biacore system in vitro, the precise orientation of SAP molecules bound to amyloid fibrils in vivo. Anti SAP antibodies were then passed over this surface at 256, 64, 16, 4, 1 nM and a binding sensorgrams obtained. Analysis was carried out at 25° C. using 4% BSA, 10 mM Tris, 140 mM NaCl, 2 mM CaCl2, 0.05% surfactant P20, 0.02% Na N3, pH 8.0 as running buffer. […] Data generated were double referenced with a buffer injection over the human SAP surface and analyzed using the bivalent analyte model in the Biacore T100 evaluation software.

The conditions of assay [2]: initial clinical studies; cited from earlier work.
The target in another assay is T2, circulating SAP (Homo sapiens, UniProt P02743).
T2 construct: host or cells: circulating plasma protein in vivo
Particulars: for as long as the drug is administered; cited from earlier work.

Assay [3] concerns the target T1, human SAP. Put plainly: Biacore off-rate ranking, SAP immobilised on C1 chip. It is filed as binding. As to conditions: culture supernatants, chimera purified at […], single curve, for ranking, 25° C. On the procedure: Human and cynomologus monkey SAP were immobilised on a Biacore C1 chip by primary amine coupling in accordance with the manufacturer's instructions. […] All runs were double referenced with a buffer injection for purified sample or media for the supernatant samples over the human and cyno SAP surfaces. Analysis was carried out at 25° C. using HBS-EP buffer. […] Data were analysed using the 1 to 1 dissociation model within the Biacore T100 evaluation software.
The data generated in Tables 6a and 6b show off-rates (kd) of the humanised SAP-E and SAP-K antibody supernatants respectively. The values were based on a single curve and used for ranking purposes between the different constructs for binding to human SAP. […] The SAP-E humanised L1 light chain was the best light chain variant and combination of the L1 with the H1 heavy chain variant gave a humanised antibody with an acceptable off-rate whilst keeping the number of back mutations to a minimum.

T1 sequence (P02743 20-223): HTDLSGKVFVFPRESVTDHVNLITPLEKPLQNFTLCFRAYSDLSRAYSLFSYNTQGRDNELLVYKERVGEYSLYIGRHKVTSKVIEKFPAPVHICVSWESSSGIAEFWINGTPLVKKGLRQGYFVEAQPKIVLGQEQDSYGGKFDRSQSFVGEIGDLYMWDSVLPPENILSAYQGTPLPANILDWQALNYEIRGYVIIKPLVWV
T2 sequence (P02743 20-223): as above

On to valine, for which the “binding with respect to H3L0” value at human SAP [1] is “improved binding with respect to H3L0, but to a lesser extent than alanine”.

On to glycine, for which the “binding with respect to H3L0” value on human SAP [1] was “improved binding with respect to H3L0, but to a lesser extent than alanine”.

For `O=C(O)[C@H]1CCCN1C(=O)CCCCC(=O)N1CCC[C@@H]1C(=O)O` [CPHPC, (R)-1-[6-[(R)-2-Carboxy-pyrrolidin-1-yl]-6-oxo-hexanoyl]pyrrolidine-2-carboxylic acid], the effect on amyloid entry in assay [2] is recorded as “did not produce amyloid regression”. Moreover, the “depletion of circulating SAP” value on circulating SAP is listed as “depletes almost all circulating SAP”.

As for serine, the “binding with respect to H3L0” value on human SAP [1] is on record as “improved binding with respect to H3L0, but to a lesser extent than alanine”.

B1: SAP-K H1L1: humanised SAP-K, VH SEQ ID NO:38, VL SEQ ID NO:42 (antibody, V domains shown)
VH: QVQLVQSGAEVKKPGSSVKVSCKASGYTFTSYWMHWVRQAPGQGLEWMGMIHPNSVNTNYNEKFKSRVTITADKSTSTAYMELSSLRSEDTAVYYCARRNDYYWYFDVWGQGTLVTVSS
VL: DIQMTQSPSSLSASVGDRVTITCKASQNVNSNVAWYQQKPGKAPKALIYSASYRYSGVPSRFSGSGSGTDFTLTISSLQPEDFATYYCQQCNNYPFTFGQGTKLEIK
Take B1: the kd in the assay with human SAP [3] was 0.0296 s⁻¹.

B2: SAP-K H2L1: humanised SAP-K, VH SEQ ID NO:39, VL SEQ ID NO:42 (antibody, V domains shown)
VH: B1 VH with M48I, V68A
VL: B1 VL
In the case of B2, the kd with human SAP [3] worked out at 0.0321 s⁻¹.

B3: SAP-K H0L1: humanised SAP-K, VH SEQ ID NO:37, VL SEQ ID NO:42 (antibody, V domains shown)
VH: B1 VH with Y27G, T30S
VL: B1 VL
Take B3: the kd in the assay with human SAP [3] turned out to be 0.0479 s⁻¹.
